Measured values from patent US8822534B2, “Substituted aminopropionic derivatives as neprilysin inhibitors” (priority 2009, dated 2014).

Target: recombinant human neutral endopeptidase (NEP, EC 3.4.24.11) (Homo sapiens (Human), UniProt P08473)
Test: in vitro inhibition of recombinant human neutral endopeptidase (fluorescence lifetime assay)
Format: biochemical
Source text: The activity of a compound according to the present invention can be assessed by the following in vitro & in vivo methods and/or by the following in vitro & in vivo methods well-described in the art. See A fluorescence lifetime-based assay for protease inhibitor profiling on human kallikrein 7 Doering K, Meder G, Hinnenberger M, Woelcke J, Mayr L M, Hassiepen U Biomol Screen.
In particular, the in vitro inhibition of recombinant human neutral endopeptidase (NEP, EC 3.4.24.11) can be determined as follows: […]

Chain of recombinant human neutral endopeptidase (NEP, EC 3.4.24.11) (P08473 whole entry): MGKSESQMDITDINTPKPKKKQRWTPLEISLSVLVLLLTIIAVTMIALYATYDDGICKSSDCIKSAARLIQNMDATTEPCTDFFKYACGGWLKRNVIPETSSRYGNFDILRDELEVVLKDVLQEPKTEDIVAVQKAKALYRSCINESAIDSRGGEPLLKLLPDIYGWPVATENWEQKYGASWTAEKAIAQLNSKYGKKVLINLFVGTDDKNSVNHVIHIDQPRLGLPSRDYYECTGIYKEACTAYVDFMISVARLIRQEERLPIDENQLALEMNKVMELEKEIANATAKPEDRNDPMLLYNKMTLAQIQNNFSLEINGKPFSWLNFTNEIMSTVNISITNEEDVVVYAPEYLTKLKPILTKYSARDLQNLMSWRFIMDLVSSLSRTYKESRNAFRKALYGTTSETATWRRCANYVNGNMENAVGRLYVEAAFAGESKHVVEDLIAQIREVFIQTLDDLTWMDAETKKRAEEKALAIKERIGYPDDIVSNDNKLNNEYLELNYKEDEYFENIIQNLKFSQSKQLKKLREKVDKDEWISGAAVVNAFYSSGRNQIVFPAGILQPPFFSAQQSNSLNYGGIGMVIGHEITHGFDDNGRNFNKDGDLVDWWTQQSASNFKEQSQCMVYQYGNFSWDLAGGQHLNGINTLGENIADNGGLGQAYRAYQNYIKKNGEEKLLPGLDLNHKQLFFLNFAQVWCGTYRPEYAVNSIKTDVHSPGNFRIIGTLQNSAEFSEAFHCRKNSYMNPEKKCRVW

`O=C(O)C[C@@H](Cc1ccc(-c2cccc(Cl)c2)cc1)NC(=O)CCC(=O)Oc1ccc2c(c1)CCC2` [Example 3-27] was tested, and the IC50 was 15 nM.
